# Assay results reported in PMC12645998, “Optimization of VE607 to generate analogs with improved neutralization activities against SARS-CoV-2 variants” (Journal of Virology, 2025).
# “And” between values parts separate entries of the source, which are not always exact repeats. Identical values can stand only once. Like-named read-outs stand apart in the source and are kept apart here.
# How the values were obtained:
# [1] = Solubility in phosphate-buffered saline
# [2] = system: SARS-CoV-2 (Wuhan strain) ectodomain SΔTM trimers; conditions: 0.1 µM labeled Spike; 50 µM compound, 0.3 µM CV3-13, 0.6 µM ACE2; unbound Spike 40% ± 2%
# [3] = system: pseudoviral particles carrying VSV-G; assay: microbe, parasite or virus in culture; assay type: cell-based; conditions: Vesicular stomatitis virus
# [4] = system: pseudoviral particles carrying SARS-CoV-1 S; assay: microbe, parasite or virus in culture; assay type: cell-based
# [5] = system: pseudoviral particles bearing the Spike glycoprotein from SARS-CoV-2; assay: microbe, parasite or virus in culture; assay type: cell-based; conditions: pseudovirus, 293T-ACE2 cells, compounds up to 100 µM
# [6] = system: SARS-CoV-2 B.1.1.7 Spike pseudovirus; assay: organism not typed; assay type: cell-based; conditions: read-out: IC50 B.1.1.7
# [7] = system: SARS-CoV-2 BA.4/5 Spike pseudovirus; assay: organism not typed; assay type: cell-based; conditions: read-out: IC50 BA.4/5
# [8] = system: SARS-CoV-2 XBB.1.5 Spike pseudovirus; assay: organism not typed; assay type: cell-based; conditions: read-out: IC50 XBB.1.5
# [9] = system: SARS-CoV-2 XBB.1.16 Spike pseudovirus; assay: organism not typed; assay type: cell-based; conditions: read-out: IC50 XBB.1.16
# [10] = system: SARS-CoV-2 BA.2.86 Spike pseudovirus; assay: organism not typed; assay type: cell-based; conditions: read-out: IC50 BA.2.86
# [11] = system: SARS-CoV-2 EG.5.1 Spike pseudovirus; assay: organism not typed; assay type: cell-based; conditions: read-out: IC50 EG.5.1
# [12] = system: SARS-CoV-2 HK.3 Spike pseudovirus; assay: organism not typed; assay type: cell-based; conditions: read-out: IC50 HK.3
# [13] = system: SARS-CoV-2 JN.1 Spike pseudovirus; assay: organism not typed; assay type: cell-based; conditions: read-out: IC50 JN.1
# [14] = system: SARS-CoV-2 KP.3.1.1 Spike pseudovirus; assay: organism not typed; assay type: cell-based; conditions: read-out: IC50 KP.3.1.1
# [15] = system: SARS-CoV-2 XEC Spike pseudovirus; assay: organism not typed; assay type: cell-based; conditions: read-out: IC50 XEC
# [16] = system: authentic SARS-CoV-2 XBB.1; assay: microbe, parasite or virus in culture; assay type: cell-based; conditions: Severe acute respiratory syndrome coronavirus 2, Vero C1008, read-out: IC50 authentic SARS-CoV-2 XBB.1
# [17] = system: Vero-E6 cells; assay: Cell viability test (CellTiter-Glo), Vero-E6; conditions: concentrations up to 100 µM, 48 h
# [18] = system: 293T-ACE2 cells; assay: Cell viability test (CellTiter-Glo), 293T-ACE2; conditions: concentrations up to 100 µM, 48 h
# [19] = system: SARS-CoV-2WA1-nLuc; design: species or system K18-hACE2 mice; conditions: mouse, in vivo
# [20] = in vivo
# [21] = 293T/ACE2, read-out: IC50 VSV-G
# [22] = Severe acute respiratory syndrome coronavirus, 293T/ACE2, read-out: IC50 SARS-CoV-1
# [23] = Severe acute respiratory syndrome coronavirus 2, 293T/ACE2, read-out: IC50 SARS-CoV-2, Table 1
# [24] = read-out: IC50 SARS-CoV-2, Table 1
molecule,measurement,setting,value
Cc1cccc(N2CCN(C[C@@H](O)COc3cc(Br)cc(OC[C@H](O)CN4CCN(c5cccc(C)c5)CC4)c3)CC2)c1 [Compound 31],Solubility in phosphate-buffered saline (PBS),[1],b Insoluble in phosphate-buffered saline (PBS).
ACE2,RBD-up conformation occupancy,[2],67% ± 2%
CCN(C)C[C@@H](O)COc1cc(Br)cc(OC[C@H](O)CN(C)CC)c1 [Compound 33],IC50,[3]; [21],> 100000 nM
same,IC50,"[3]; 293T/ACE2, read-out: IC50 VSVG",> 100000 nM
same,IC50,[4]; [22],1440 nM
same,IC50,[4]; read-out: IC50 SARS-CoV-1,1300 nM
same,IC50,[5]; [23],1710 nM
same,IC50,[6],1440 nM
same,IC50,[7],2810 nM
same,IC50,[8],2430 nM
same,IC50,[9],2130 nM
same,IC50,[10],2970 nM
same,IC50,[11],1820 nM
same,IC50,[12],2350 nM
same,IC50,[13],2020 nM
same,IC50,[14],2990 nM
same,IC50,[15],2390 nM
same,IC50,[16],17000 nM
same,RBD-up conformation occupancy,[2],61% ± 2%
same,Toxicity in Vero-E6 cells,[17],no toxicity
same,Toxicity in 293T-ACE2 cells,[18],no toxicity
CN1CCN(C[C@@H](O)COc2cc(Br)cc(OC[C@H](O)CN3CCN(C)CC3)c2)CC1 [Compound 30],IC50,[3]; [21],80800 nM
same,IC50,"[3]; 293T/ACE2, read-out: IC50 VSVG",> 100000 nM
same,IC50,[4]; [22],1980 nM
same,IC50,[4]; read-out: IC50 SARS-CoV-1,1310 nM
same,IC50,[5]; [23],1480 nM
same,IC50,[6],1260 nM
same,IC50,[7],4880 nM
same,IC50,[8],1050 nM
same,IC50,[9],1400 nM
same,IC50,[10],3520 nM
same,IC50,[11],1500 nM
same,IC50,[12],540 nM
same,IC50,[13],3900 nM
same,IC50,[14],2160 nM
same,IC50,[15],3090 nM
same,IC50,[16],38000 nM
same,Toxicity in Vero-E6 cells,[17],no toxicity
same,Toxicity in 293T-ACE2 cells,[18],no toxicity
CN(C)C[C@@H](O)COc1cccc(F)c1 [Compound 56],IC50,[3]; [21],> 100000 nM
same,IC50,[4]; [22],19500 nM
same,IC50,[5]; [23],> 100000 nM
CNC[C@@H](O)COc1ccccc1 [Compound 43],IC50,[3]; [21],> 100000 nM
same,IC50,[4]; [22],62600 nM
same,IC50,[5]; [23],> 100000 nM
O[C@H](CNCc1ccncc1)COc1cc(Br)cc(OC[C@H](O)CNCc2ccncc2)c1 [Compound 37],IC50,[3]; [21],3890 nM
same,IC50,[4]; [22],1290 nM
same,IC50,[5]; [23],1370 nM
CNC[C@@H](O)COc1cc(Br)cc(OC[C@H](O)CNC)c1 [Compound 41],IC50,[3]; [21],> 100000 nM
same,IC50,[4]; [22],310 nM
same,IC50,[5]; [23],1170 nM
CCN(C)C[C@@H](O)COc1ccccc1 [Compound 46],IC50,[3]; [21],> 100000 nM
same,IC50,[4]; [22],> 100000 nM
same,IC50,[5]; [23],> 100000 nM
C=CCNC[C@@H](O)COc1cc(Br)cc(OC[C@H](O)CNCC=C)c1 [Compound 35],IC50,[3]; [21],26400 nM
same,IC50,[4]; [22],620 nM
same,IC50,[5]; [23],700 nM
CN1CCN(C[C@@H](O)COc2cccc(F)c2)CC1 [Compound 59],IC50,[3]; [21],> 100000 nM
same,IC50,[4]; [22],> 100000 nM
same,IC50,[5]; [23],> 100000 nM
CC(C)CNC[C@@H](O)COc1cccc(F)c1 [Compound 55],IC50,[3]; [21],> 100000 nM
same,IC50,[4]; [22],> 100000 nM
same,IC50,[5]; [23],> 100000 nM
O[C@H](CNCc1ccc(OC(F)(F)F)cc1)COc1cc(Br)cc(OC[C@H](O)CNCc2ccc(OC(F)(F)F)cc2)c1 [Compound 39],Solubility in phosphate-buffered saline (PBS),[1],b Insoluble in phosphate-buffered saline (PBS).
CCN(C)C[C@@H](O)COc1cccc(C(C)(C)C)c1 [Compound 63],IC50,[3]; [21],> 100000 nM
same,IC50,[4]; [22],4660 nM
same,IC50,[5]; [23],> 100000 nM
O[C@@H](COc1cc(Br)cc(OC[C@H](O)CN2CCC(O)(c3ccc(Cl)cc3)CC2)c1)CN1CCC(O)(c2ccc(Cl)cc2)CC1 [Compound 32],Solubility in phosphate-buffered saline (PBS),[1],b Insoluble in phosphate-buffered saline (PBS).
CN(C)C[C@@H](O)COc1cc(Br)cc(OC[C@H](O)CN(C)C)c1 [Compound 27],IC50,[3]; [21],52400 nM
same,IC50,"[3]; 293T/ACE2, read-out: IC50 VSVG",> 100000 nM
same,IC50,[4]; [22],620 nM
same,IC50,[4]; read-out: IC50 SARS-CoV-1,625 nM and 930 nM
same,IC50,[5]; [23],440 nM
same,IC50,[5]; [24],437 nM
same,IC50,[6],1120 nM
same,IC50,[7],1450 nM
same,IC50,[8],1040 nM
same,IC50,[9],1800 nM
same,IC50,[10],3300 nM
same,IC50,[11],1130 nM
same,IC50,[12],730 nM
same,IC50,[13],1340 nM
same,IC50,[14],2380 nM
same,IC50,[15],1790 nM
same,IC50,[16],24000 nM
same,RBD-up conformation occupancy,[2],55% ± 2%
same,Protection / survival outcome,[19],succumbed to virus-induced mortality
same,Survival extended compared to the control group,[19],1 days
same,Concentration in plasma,"[20]; both, K18-hACE2, mouse",~ 1.5 µM
same,Plasma retention,[20]; mouse,short plasma retention
same,Brain penetration,"[20]; mouse, ip",minimal penetration in the brain
same,Toxicity in Vero-E6 cells,[17],no toxicity
same,Toxicity in 293T-ACE2 cells,[18],no toxicity
O[C@H](CNCc1ccccc1OC(F)(F)F)COc1cccc(OC[C@H](O)CNCc2ccccc2OC(F)(F)F)c1 [Compound 23],Solubility in phosphate-buffered saline (PBS),[1],b Insoluble in phosphate-buffered saline (PBS).
CNC[C@@H](O)COc1cccc(C(C)(C)C)c1 [Compound 60],IC50,[3]; [21],> 100000 nM
same,IC50,[4]; [22],45500 nM
same,IC50,[5]; [23],> 100000 nM
C=CCNC[C@@H](O)COc1cccc(OC[C@H](O)CNCC=C)c1 [Compound 21],IC50,[3]; [21],> 100000 nM
same,IC50,[4]; [22],41200 nM
same,IC50,[5]; [23],47800 nM
"O[C@@H](COc1cccc(OC[C@H](O)CN2CCCCC2)c1)CN1CCCCC1 [(R,R)-VE607, reference compound]",IC50,[3]; [21],> 100000 nM
same,IC50,"[3]; 293T/ACE2, read-out: IC50 VSVG",> 100000 nM
same,IC50,[4]; [22],800 nM
same,IC50,[4]; read-out: IC50 SARS-CoV-1,890 nM
same,IC50,[5]; [23],980 nM
same,IC50,[6],1170 nM
same,IC50,[7],5780 nM
same,IC50,[8],990 nM
same,IC50,[9],2030 nM
same,IC50,[10],2640 nM
same,IC50,[11],1310 nM
same,IC50,[12],3880 nM
same,IC50,[13],6400 nM
same,IC50,[14],4680 nM
same,IC50,[15],3900 nM
same,IC50,[16],58600 nM
CN1CCN(C[C@@H](O)COc2cccc(C(C)(C)C)c2)CC1 [Compound 65],IC50,[3]; [21],> 100000 nM
same,IC50,[4]; [22],22000 nM
same,IC50,[5]; [23],45700 nM
CCN(C)C[C@@H](O)COc1cccc(Br)c1 [Compound 52],IC50,[3]; [21],> 100000 nM
same,IC50,[4]; [22],51800 nM
same,IC50,[5]; [23],> 100000 nM
O[C@H](CNC1CCOCC1)COc1cc(Br)cc(OC[C@H](O)CNC2CCOCC2)c1 [Compound 40],IC50,[3]; [21],> 100000 nM
same,IC50,[4]; [22],600 nM
same,IC50,[5]; [23],3630 nM
Cc1cccc(N2CCN(C[C@@H](O)COc3cccc(OC[C@H](O)CN4CCN(c5cccc(C)c5)CC4)c3)CC2)c1 [Compound 18],Solubility in phosphate-buffered saline (PBS),[1],b Insoluble in phosphate-buffered saline (PBS).
CCN(CC)C[C@@H](O)COc1ccccc1 [Compound 47],IC50,[3]; [21],> 100000 nM
same,IC50,[4]; [22],> 100000 nM
same,IC50,[5]; [23],> 100000 nM
CC(C)CNC[C@@H](O)COc1cc(Br)cc(OC[C@H](O)CNCC(C)C)c1 [Compound 36],IC50,[3]; [21],5050 nM
same,IC50,[4]; [22],220 nM
same,IC50,[5]; [23],320 nM
O[C@@H](COc1cccc(OC[C@H](O)CN2CCOCC2)c1)CN1CCOCC1 [Compound 16],IC50,[3]; [21],> 100000 nM
same,IC50,[4]; [22],> 100000 nM
same,IC50,[5]; [23],> 100000 nM
O[C@@H](COc1cc(Br)cc(OC[C@H](O)CN2CCCCC2)c1)CN1CCCCC1 [Compound 26],IC50,[3]; [21],2390 nM
same,IC50,[4]; [22],381 nM
same,IC50,[5]; [23],440 nM
same,IC50,[5]; [24],443 nM
